Test results published in ChEMBL document CHEMBL4308841, “Synthesis, in vitro antiproliferative activity, and kinase inhibitory effects of pyrazole-containing diarylureas and diarylamides” (Eur J Med Chem, 2018).

Key:
MOLT-4 = experiment: Growth inhibition of human MOLT4 cells assessed as cell growth at 10 uM incubated for 48 hrs by sulforhodamine B assay relative to control; type: functional; details: MOLT-4, 48 h, read-out: Activity
786-0 = experiment: Growth inhibition of human 786-0 cells assessed as cell growth at 1 uM incubated for 48 hrs by sulforhodamine B assay relative to control; type: functional; details: 786-0, 48 h, read-out: Activity
HCT-15 = experiment: Growth inhibition of human HCT15 cells assessed as cell growth at 10 uM incubated for 48 hrs by sulforhodamine B assay relative to control; type: functional; details: HCT-15, 48 h, read-out: Activity
NCI-H226 = experiment: Growth inhibition of human NCI-H226 cells assessed as cell growth at 10 uM incubated for 48 hrs by sulforhodamine B assay relative to control; type: functional; details: NCI-H226, 48 h, read-out: Activity
COLO 205 = experiment: Growth inhibition of human COLO205 cells assessed as cell growth at 10 uM incubated for 48 hrs by sulforhodamine B assay relative to control; type: functional; details: COLO 205, 48 h, read-out: Activity
MDA-MB-435 = experiment: Growth inhibition of human MDA-MB-435 cells assessed as cell growth at 10 uM incubated for 48 hrs by sulforhodamine B assay relative to control; type: functional; details: MDA-MB-435, 48 h, read-out: Activity
HCC 2998 = experiment: Growth inhibition of human HCC2998 cells assessed as cell growth at 10 uM incubated for 48 hrs by sulforhodamine B assay relative to control; type: functional; details: HCC 2998, 48 h, read-out: Activity
SW-620 [1] = experiment: Growth inhibition of human SW620 cells assessed as cell growth at 0.01 uM incubated for 48 hrs by sulforhodamine B assay relative to control; type: functional; details: SW-620, 48 h, read-out: Activity
T47D = experiment: Growth inhibition of human T47D cells assessed as cell growth at 10 uM incubated for 48 hrs by sulforhodamine B assay relative to control; type: functional; details: read-out: Activity
OVCAR-5 = experiment: Growth inhibition of human OVCAR5 cells assessed as cell growth at 10 uM incubated for 48 hrs by sulforhodamine B assay relative to control; type: functional; details: OVCAR-5, 48 h, read-out: Activity
MDA-MB-468 [2] = experiment: Growth inhibition of human MDA-MB-468 cells assessed as cell growth at 10 uM incubated for 48 hrs by sulforhodamine B assay relative to control; type: functional; details: MDA-MB-468, 48 h, read-out: Activity
Malme-3M = experiment: Growth inhibition of human MALME-3M cells assessed as cell growth at 10 uM incubated for 48 hrs by sulforhodamine B assay relative to control; type: functional; details: read-out: Activity
RPMI-8226 = experiment: Growth inhibition of human RPMI8226 cells assessed as cell growth at 0.1 uM incubated for 48 hrs by sulforhodamine B assay relative to control; type: functional; details: RPMI-8226, 48 h, read-out: Activity
MDA-MB-468 [3] = experiment: Growth inhibition of human MDA-MB-468 cells assessed as cell growth at 100 uM incubated for 48 hrs by sulforhodamine B assay relative to control; type: functional; details: MDA-MB-468, 48 h, read-out: Activity
CCRF-CEM = experiment: Growth inhibition of human CCRF-CEM cells assessed as cell growth at 10 uM incubated for 48 hrs by sulforhodamine B assay relative to control; type: functional; details: read-out: Activity
UO-31 = experiment: Growth inhibition of human UO31 cells assessed as cell growth at 100 uM incubated for 48 hrs by sulforhodamine B assay relative to control; type: functional; details: UO-31, 48 h, read-out: Activity
SF-295 = experiment: Growth inhibition of human SF295 cells assessed as cell growth at 10 uM incubated for 48 hrs by sulforhodamine B assay relative to control; type: functional; details: SF-295, 48 h, read-out: Activity
U-251 = experiment: Growth inhibition of human U251 cells assessed as cell growth at 10 uM incubated for 48 hrs by sulforhodamine B assay relative to control; type: functional; details: U-251, 48 h, read-out: Activity
UACC-62 = experiment: Growth inhibition of human UACC62 cells assessed as cell growth at 10 uM incubated for 48 hrs by sulforhodamine B assay relative to control; type: functional; details: UACC-62, 48 h, read-out: Activity
NCI-H23 = experiment: Growth inhibition of human NCI-H23 cells assessed as cell growth at 0.1 uM incubated for 48 hrs by sulforhodamine B assay relative to control; type: functional; details: NCI-H23, 48 h, read-out: Activity
IGROV-1 = experiment: Growth inhibition of human IGROV1 cells assessed as cell growth at 10 uM incubated for 48 hrs by sulforhodamine B assay relative to control; type: functional; details: IGROV-1, 48 h, read-out: Activity
SK-MEL-5 = experiment: Growth inhibition of human SK-MEL-5 cells assessed as cell growth at 10 uM incubated for 48 hrs by sulforhodamine B assay relative to control; type: functional; details: SK-MEL-5, 48 h, read-out: Activity
DU-145 = experiment: Growth inhibition of human DU145 cells assessed as cell growth at 0.1 uM incubated for 48 hrs by sulforhodamine B assay relative to control; type: functional; details: DU-145, 48 h, read-out: Activity
BT-549 = experiment: Growth inhibition of human BT549 cells assessed as cell growth at 10 uM incubated for 48 hrs by sulforhodamine B assay relative to control; type: functional; details: BT-549, 48 h, read-out: Activity
HCT-116 = experiment: Growth inhibition of human HCT116 cells assessed as cell growth at 0.01 uM incubated for 48 hrs by sulforhodamine B assay relative to control; type: functional; details: HCT-116, 48 h, read-out: Activity
K562 = experiment: Growth inhibition of human K562 cells assessed as cell growth at 10 uM incubated for 48 hrs by sulforhodamine B assay relative to control; type: functional; details: K562, 48 h, read-out: Activity
CAKI-1 = experiment: Growth inhibition of human Caki1 cells assessed as cell growth at 10 uM incubated for 48 hrs by sulforhodamine B assay relative to control; type: functional; details: CAKI-1, 48 h, read-out: Activity
UACC-257 = experiment: Growth inhibition of human UACC257 cells assessed as cell growth at 10 uM incubated for 48 hrs by sulforhodamine B assay relative to control; type: functional; details: UACC-257, 48 h, read-out: Activity
SW-620 [4] = experiment: Growth inhibition of human SW620 cells assessed as cell growth at 1 uM incubated for 48 hrs by sulforhodamine B assay relative to control; type: functional; details: SW-620, 48 h, read-out: Activity
SF-539 = experiment: Growth inhibition of human SF539 cells assessed as cell growth at 100 uM incubated for 48 hrs by sulforhodamine B assay relative to control; type: functional; details: SF-539, 48 h, read-out: Activity
NCI-H322M = experiment: Growth inhibition of human NCI-H322M cells assessed as cell growth at 10 uM incubated for 48 hrs by sulforhodamine B assay relative to control; type: functional; details: read-out: Activity
Hs-578T = experiment: Growth inhibition of human Hs578T cells incubated for 48 hrs by sulforhodamine B assay; type: functional, cell-based
[5] = read-out: LC50 (the source's name)
[6] = read-out: pLC50 (the source's name) (converted)

| Compound | growth at 10 µM (MOLT-4) [%] | growth at 1 µM (786-0) [%] | growth at 10 µM (HCT-15) [%] | growth at 10 µM (NCI-H226) [%] | growth at 10 µM (COLO 205) [%] | growth at 10 µM (MDA-MB-435) [%] | growth at 10 µM (HCC 2998) [%] | growth at 0.01 µM (SW-620 [1]) [%] | growth at 10 µM (T47D) [%] | growth at 10 µM (OVCAR-5) [%] | growth at 10 µM (MDA-MB-468 [2]) [%] | growth at 10 µM (Malme-3M) [%] | growth at 0.1 µM (RPMI-8226) [%] | growth at 100 µM (MDA-MB-468 [3]) [%] | growth at 10 µM (CCRF-CEM) [%] | growth at 100 µM (UO-31) [%] | growth at 10 µM (SF-295) [%] | growth at 10 µM (U-251) [%] | growth at 10 µM (UACC-62) [%] | growth at 0.1 µM (NCI-H23) [%] | also measured |
| --- | --- | --- | --- | --- | --- | --- | --- | --- | --- | --- | --- | --- | --- | --- | --- | --- | --- | --- | --- | --- | --- |
| COc1cc(Cl)cc(-c2nn(-c3cccc(NC(=O)c4cccc(C(F)(F)F)c4)c3)cc2-c2ccncc2)c1 | 29 | 56 | 33.2 | 69 | 68.5 | 65.6 | 54.6 | 101 | 36.6 | 84 | 47 | 92.4 | 97 | 28 | 42.3 | 37 | 37.9 | 49.2 | 74.5 | 97 | growth at 10 µM (IGROV-1): 80.7%; growth at 10 µM (SK-MEL-5): 70.7%; growth at 0.1 µM (DU-145): 107%; growth at 10 µM (BT-549): 89.5%; growth at 0.01 µM (HCT-116): 100%; growth at 10 µM (K562): 26%; growth at 10 µM (CAKI-1): 54%; growth at 10 µM (UACC-257): 68.7%; growth at 1 µM (SW-620 [4]): 107%; growth at 100 µM (SF-539): 53%; growth at 10 µM (NCI-H322M): 78.6%; GI50 (Hs-578T; read-out: GI50): > 100 µM; CC50 (Hs-578T; [5]): > 100 µM; TGI (Hs-578T; read-out: TGI): > 100 µM; GI50 (Hs-578T; read-out: pGI50 (converted)): > 100 µM; CC50 (Hs-578T; [6]): > 100 µM; TGI (Hs-578T; read-out: pTGI (converted)): > 100 µM |
| O=C(Nc1cccc(-n2cc(-c3ccncc3)c(-c3cc(O)cc(Cl)c3)n2)c1)Nc1ccc(Cl)c(Cl)c1 | -27.1 | 71 | -25.3 | 14.5 | 22.4 | -33.3 | 0.57 | 96 | -5.53 | -2.26 | -1.88 | -35.1 | 103 | -17 | 4.11 | -27 | -50.5 | -56.5 | -61.8 | 97 | growth at 10 µM (IGROV-1): 26%; growth at 10 µM (SK-MEL-5): -53%; growth at 0.1 µM (DU-145): 104%; growth at 10 µM (BT-549): 0.54%; growth at 0.01 µM (HCT-116): 101%; growth at 10 µM (K562): 1.06%; growth at 10 µM (CAKI-1): 5.31%; growth at 10 µM (UACC-257): -70.7%; growth at 1 µM (SW-620 [4]): 102%; growth at 100 µM (SF-539): -52%; growth at 10 µM (NCI-H322M): 19.5%; GI50 (Hs-578T; read-out: GI50): 3.23 µM; CC50 (Hs-578T; [5]): > 100 µM; TGI (Hs-578T; read-out: TGI): > 100 µM; GI50 (Hs-578T; read-out: pGI50 (converted)): 3.24 µM; CC50 (Hs-578T; [6]): > 100 µM; TGI (Hs-578T; read-out: pTGI (converted)): > 100 µM |
| COc1cc(Cl)cc(-c2nn(-c3cccc(NC(=O)Nc4cccc(C(F)(F)F)c4)c3)cc2-c2ccncc2)c1 | -9.16 | 77 | 7.83 | 3.94 | -31.2 | -20.9 | 19 | 103 | -0.45 | 34.1 | 6.89 | -16.6 | 98 | -34 | 3.34 | -20 | -7.87 | 4.59 | -11.5 | 90 | growth at 10 µM (IGROV-1): 28.9%; growth at 10 µM (SK-MEL-5): 5.3%; growth at 0.1 µM (DU-145): 99%; growth at 10 µM (BT-549): 12.9%; growth at 0.01 µM (HCT-116): 101%; growth at 10 µM (K562): 7.61%; growth at 10 µM (CAKI-1): 16.1%; growth at 10 µM (UACC-257): -11.7%; growth at 1 µM (SW-620 [4]): 74%; growth at 100 µM (SF-539): -72%; growth at 10 µM (NCI-H322M): 26.2%; GI50 (Hs-578T; read-out: GI50): 4.05 µM; CC50 (Hs-578T; [5]): > 100 µM; TGI (Hs-578T; read-out: TGI): > 100 µM; GI50 (Hs-578T; read-out: pGI50 (converted)): 4.07 µM; CC50 (Hs-578T; [6]): > 100 µM; TGI (Hs-578T; read-out: pTGI (converted)): > 100 µM |
